1 sequence from patent US8735361B2, “C1ORF59 peptides and vaccines including the same” (Oncotherapy Science, Inc., priority 2008, dated 2014) can be followed below.

For assay [1], the system named is peptide-pulsed A24 LCL. In words: IFN-gamma ELISA assay of CTL clones established by limiting dilution (HLA-A*2402). The format is cell-based, human. The following applies: CTL clones against target cells pulsed with peptide. As to the method:
The dilutions were made to have 0.3, 1, and 3 CTLs/well in 96 round-bottomed micro titer plate (Nalge Nunc International). CTLs were cultured with 1×10^4 cells/well of 2 kinds of human B-lymphoblastoid cell lines, 30 ng/ml of anti-CD3 antibody, and 125 U/ml of IL-2 in a total of 150 microlitter/well of AIM-V Medium containing 5% AS. 50 microlitter/well of IL-2 were added to the medium 10 days later so to reach a final concentration of 125 U/ml IL-2. CTL activity was tested on the 14th day, and CTL clones were expanded using the same method as described above (Uchida N et al., Clin Cancer Res 2004 Dec. 15, 10(24): 8577-86; Suda T et al., Cancer Sci 2006 May, 97(5): 411-9; Watanabe T et al., Cancer Sci 2005 August, 96(8): 498-506).
(§1) To examine specific CTL activity, interferon (IFN)-gamma enzyme-linked immunospot (ELISPOT) assay and IFN-gamma enzyme-linked immunosorbent assay (ELISA) were performed. Specifically, peptide-pulsed A24 LCL (1×10^4/well) was prepared as stimulator cells. Cultured cells in 48 wells were used as responder cells. IFN-gamma ELISPOT assay and IFN-gamma ELISA assay were performed under manufacture procedure.
Background: In an ELISA, binding on a coated surface is turned into a signal by an enzyme label.

Assay [2] has as its system peptide-pulsed A24 LCL. The assay can be described thus: In vitro CTL induction with HLA-A*2402 restricted peptides, IFN-gamma ELISPOT assay. The format is cell-based, human. The following applies: CTLs from HLA-A*2402 positive donor stimulated with peptide-pulsed DCs; compared to control wells.
Description: Monocyte-derived dendritic cells (DCs) were used as antigen-presenting cells (APCs) to induce cytotoxic T lymphocyte (CTL) responses against peptides presented on human leukocyte antigen (HLA). DCs were generated in vitro as described elsewhere (Nakahara S et al., Cancer Res 2003 Jul. 15, 63(14): 4112-8). Specifically, peripheral blood mononuclear cells (PBMCs) isolated from a normal volunteer (HLA-A*2402 positive) by Ficoll-Plaque (Pharmacia) solution were separated by adherence to a plastic tissue culture dish (Becton Dickinson) so as to enrich them as the monocyte fraction. The monocyte-enriched population was cultured in the presence of 1000 U/ml of granulocyte-macrophage colony-stimulating factor (GM-CSF) (R&D System) and 1000 U/ml of interleukin (IL)-4 (R&D System) in AIM-V Medium (Invitrogen) containing 2% heat-inactivated autologous serum (AS). After 7 days of culture, the cytokine-induced DCs were pulsed with 20 micro gram/ml of each of the synthesized peptides in the presence of 3 micro gram/ml of beta 2-microglobulin for 3 hrs at 37 degrees C. in AIM-V Medium. The generated cells appeared to express DC-associated molecules, such as CD80, CD83, CD86 and HLA class II, on their cell surfaces (data not shown). These peptide-pulsed DCs were then inactivated by X-irradiated (20 Gy) and mixed at a 1:20 ratio with autologous CD8+ T cells, obtained by positive selection with CD8 Positive Isolation Kit (Dynal). These cultures were set up in 48-well plates (Corning); each well contained 1.5×10^4 peptide-pulsed DCs, 3×10^5 CD8+ T cells and 10 ng/ml of IL-7 (R&D System) in 0.5 ml of AIM-V/2% AS medium. Three days later, these cultures were supplemented with IL-2 (CHIRON) to a final concentration of 20 IU/ml. On day 7 and 14, the T cells were further stimulated with the autologous peptide-pulsed DCs. The DCs were prepared each time by the same way described above. CTL was tested against peptide-pulsed A24 LCL or T2 cells after the 3rd round of peptide stimulation on day 21 (Tanaka H et al., Br J Cancer 2001 Jan. 5, 84(1): 94-9; Umano Y et al., Br J Cancer 2001 Apr. 20, 84(8): 1052-7; Uchida N et al., Clin Cancer Res 2004 Dec. 15, 10(24): 8577-86; Suda T et al., Cancer Sci 2006 May, 97(5): 411-9; Watanabe T et al., Cancer Sci 2005 August, 96(8): 498-506)
as §1

For assay [3], the system named is peptide-pulsed A24 LCL. In words: IFN-gamma ELISA assay of expanded CTL lines (HLA-A*2402). Conditions: target cells pulsed with corresponding peptide compared to target cells without peptide pulse. Format: cell-based, human. As for the experimental part: CTLs were expanded in culture using the method similar to the one described by Riddell et al. (Walter E A et al., N Engl J Med 1995 Oct. 19, 333(16): 1038-44; Riddell S R et al., Nat Med 1996 February, 2(2): 216-23). A total of 5×10^4 CTLs were suspended in 25 ml of AIM-V/5% AS medium with 2 kinds of human B-lymphoblastoid cell lines, inactivated by MMC, in the presence of 40 ng/ml of anti-CD3 monoclonal antibody (Pharmingen). One day after initiating the cultures, 120 IU/ml of IL-2 were added to the cultures. The cultures were fed with fresh AIM-V/5% AS medium containing 30 IU/ml of IL-2 on days 5, 8 and 11 (Tanaka H et al., Br J Cancer 2001 Jan. 5, 84(1): 94-9; Umano Y et al., Br J Cancer 2001 Apr. 20, 84(8): 1052-7; Uchida N et al., Clin Cancer Res 2004 Dec. 15, 10(24): 8577-86; Suda T et al., Cancer Sci 2006 May, 97(5): 411-9; Watanabe T et al., Cancer Sci 2005 August, 96(8): 498-506).
as §1

The test system of assay [4] is COS7 cells transfected with C1orf59 and HLA-A*2402. The assay can be described thus: Specific CTL activity against target cells exogenously expressing C1orf59 and HLA-A*2402. The format is cell-based, African green monkey. An excerpt:
The cDNA encoding an open reading frame of target genes or HLA-A24 was amplified by PCR. The PCR-amplified product was cloned into pCAGGS vector. The plasmids were transfected into COS7, which is the target genes and HLA-A24-null cell line, using lipofectamine 2000 (Invitrogen) according to the manufacturer's recommended procedures. After 2 days from transfection, the transfected cells were harvested with versene (Invitrogen) and used as the target cells (5×10^4 cells/well) for CTL activity assay.
The established CTL lines raised against these peptides were examined for their ability to recognize target cells that express C1orf59 and HLA-A*2402 molecule. Specific CTL activity against COS7 cells which transfected with both the full length of C1orf59 and HLA-A*2402 molecule gene (a specific model for the target cells that express C1orf59 and HLA-A*2402 gene) was tested using the CTL lines raised by corresponding peptide as the effecter cells. COS7 cells transfected with either full length of C1orf59 genes or HLA-A*2402 were prepared as control.

On to GYCTQIGIF [SEQ ID NO: 26], for which the “IFN-gamma production of CTL clones by ELISA” value in the assay with peptide-pulsed A24 LCL [1] is “Potent IFN-gamma productions”. For the same sequence, the “Peptide specific CTL activity, IFN-gamma production by ELISPOT” value in the assay on peptide-pulsed A24 LCL [2] is given as “potent IFN-gamma production”. Further, the “IFN-gamma production of CTL lines by ELISA” value in the assay on peptide-pulsed A24 LCL [3] was “potent IFN-gamma production”. For the same sequence, the “Specific CTL activity against control COS7 cells” value in assay [4] (COS7 transfected with either full length C1orf59 or HLA-A*2402 alone) was “no significant specific CTL activity”. Besides, the “Specific CTL activity against COS7 cells expressing both C1orf59 and HLA-A*2402” value in assay [4] (CTLs raised by the peptide as effector cells) is “potent CTL activity”.
